Laboratory results reported in ChEMBL document CHEMBL3885861, “Open TG-GATES”.

Species: Rattus norvegicus
Test: Open TG-GATES - Regimen: Daily Repeat
Type: toxicity, organism-based, Sprague-Dawley
Set-up: regimen Daily Repeat, gender Male, age 6 weeks
Conditions: in vivo, po, 30 mg/kg, […], route gavage, dose level Middle; for KIDNEY_L / KIDNEY_R / KIDNEY_TOTAL: tissue Kidney; for LIVER: tissue Liver; for ALP / ALT / AST / BUN / CRE / Ca / Cl / DBIL / GLC / IP / K / LDH / Na / PL / RALB / TBIL / TC / TG / TP / gamma-GTP: tissue Plasma

Cc1cccc(Nc2cc(Cl)nc(SCC(=O)O)n2)c1C [PIRINIXIC ACID]
Ht (tissue Blood, time 28 day): 39.5%
Lym (tissue Blood, time 28 day): 78%
MCH (tissue Blood, time 28 day): 19.6 pg
MCHC (tissue Blood, time 28 day): 34.9%
MCV (tissue Blood, time 28 day): 56.2 fL
Mono (tissue Blood, time 28 day): 3%
Neu (tissue Blood, time 28 day): 17.6%
PT (tissue Blood, time 28 day): 12.4 s
RBC (tissue Blood, time 28 day): 703.4 x10_4/ul
Ret (tissue Blood, time 28 day): 3.3%
WBC (tissue Blood, time 28 day): 108.3 x10_2/uL
KIDNEY_L (time 7 day): 1.2 g
KIDNEY_R (time 7 day): 1.1 g
KIDNEY_TOTAL (time 7 day): 2.3 g
KIDNEY_L (time 14 day): 1.4 g
KIDNEY_R (time 14 day): 1.3 g
KIDNEY_TOTAL (time 14 day): 2.7 g
KIDNEY_L (time 28 day): 1.5 g
KIDNEY_R (time 28 day): 1.5 g
KIDNEY_TOTAL (time 28 day): 3 g
LIVER (time 7 day): 21.7 g
LIVER (time 14 day): 25.2 g
LIVER (time 28 day): 29.4 g
ALP (time 7 day): 1797.4 IU/L
ALT (time 7 day): 53 IU/L
AST (time 7 day): 71.8 IU/L
BUN (time 7 day): 19.4 mg/dL
CRE (time 7 day): 0.2 mg/dL
Ca (time 7 day): 11.2 mg/dL
Cl (time 7 day): 103 meq/L
DBIL (time 7 day): 0.014 mg/dL
GLC (time 7 day): 191.8 mg/dL
IP (time 7 day): 7 mg/dL
K (time 7 day): 4.1 meq/L
LDH (time 7 day): 180.2 IU/L
Na (time 7 day): 142.2 meq/L
PL (time 7 day): 139 mg/dL
RALB (time 7 day): 2.9 g/dL
TBIL (time 7 day): 0.032 mg/dL
TC (time 7 day): 71.6 mg/dL
TG (time 7 day): 46 mg/dL
TP (time 7 day): 6.1 g/dL
gamma-GTP (time 7 day): 1 IU/L
ALP (time 14 day): 1895.2 IU/L
ALT (time 14 day): 48.2 IU/L
AST (time 14 day): 66.6 IU/L
BUN (time 14 day): 19.2 mg/dL
CRE (time 14 day): 0.2 mg/dL
Ca (time 14 day): 10.5 mg/dL
Cl (time 14 day): 102.6 meq/L
DBIL (time 14 day): 0.016 mg/dL
GLC (time 14 day): 194.6 mg/dL
IP (time 14 day): 7.1 mg/dL
K (time 14 day): 3.9 meq/L
LDH (time 14 day): 114 IU/L
Na (time 14 day): 141.8 meq/L
PL (time 14 day): 144.4 mg/dL
RALB (time 14 day): 2.9 g/dL
TBIL (time 14 day): 0.034 mg/dL
TC (time 14 day): 69.6 mg/dL
TG (time 14 day): 51.6 mg/dL
TP (time 14 day): 6.1 g/dL
gamma-GTP (time 14 day): 1.4 IU/L
ALP (time 28 day): 1970.8 IU/L
ALT (time 28 day): 47.2 IU/L
AST (time 28 day): 62.4 IU/L
BUN (time 28 day): 18.2 mg/dL
CRE (time 28 day): 0.2 mg/dL
Ca (time 28 day): 10.7 mg/dL
Cl (time 28 day): 102.8 meq/L
DBIL (time 28 day): 0.012 mg/dL
GLC (time 28 day): 189.2 mg/dL
IP (time 28 day): 7.2 mg/dL
K (time 28 day): 3.7 meq/L
LDH (time 28 day): 111.4 IU/L
Na (time 28 day): 141.6 meq/L
PL (time 28 day): 149 mg/dL
RALB (time 28 day): 3 g/dL
TBIL (time 28 day): 0.05 mg/dL
TC (time 28 day): 70.6 mg/dL
TG (time 28 day): 55.4 mg/dL
TP (time 28 day): 6.5 g/dL
